The source of these data is US6610675B1 (priority 1980, dated 2003).

Series [1] relates to granulation tissue formation caused by implantation of cotton pellets. Kind of series: Granuloma formation test (local cotton pellet granuloma assay). Conditions: Table V-b. In kind it is in vivo, rat. As for the experimental part: The test compound was dissolved in acetone and aliquots of varying concentrations were injected into cotton pellets. The pellets were dried and then one pellet was implanted beneath the skin of each test rat. Six days later, the animals were sacrificed and the granulation tissue (granuloma) which formed in and around the implanted pellet was removed, dried and weighed. In addition, the thymi and adrenals were removed and weighed.

For another series, the system named is thymus weight in rats. Kind of series: Thymus inhibition testing (subcutaneous administration). In kind it is in vivo, rat. The note with it: three days. On the procedure: Several further studies were undertaken to determine the effects of selected compounds of the invention on thymi weights in rats when the drugs were systemically administered. In each of these studies, male Sprague-Dawley rats were used. […] On the fifth day (48 hours following the last treatment), the animals were sacrificed and the thymi weights were recorded. […] It is evident that the higher the inhibition of thymus activity at a given dose, the more toxic the compound is.

On to `CCOC(=O)O[C@]1(C(=O)OCCl)[C@H](C)C[C@H]2[C@@H]3CCC4=CC(=O)C=C[C@]4(C)[C@@]3(F)C(=O)C[C@@]21C` [chloromethyl 17α-ethoxycarbonyloxy-9α-fluoro-16α-methylandrosta-1,4-dien-3,11-dione-17β-carboxylate], for which, in series [1] (1 μg/pellet), the Body wt. gain was found to be 23.7 ± 1.5 g, the “Dry granulation Tissue” value came out at 55.3 ± 2.6 mg, the “Dry granulation Tissue Inhibition” value was 17.7% and the Thymus wt. is recorded as 459 ± 41 mg. For the same compound, in series [1] (3 μg/pellet), the Body wt. gain was 25.6 ± 1.2 g, the “Dry granulation Tissue” value is listed as 51.6 ± 5.9 mg, the “Dry granulation Tissue Inhibition” value is listed as 23.2% and the Thymus wt. was determined as 467 ± 21 mg. For the same compound, in series [1] (10 μg/pellet), the Body wt. gain came to 26.5 ± 2.5 g, the “Dry granulation Tissue” value came out at 41.5 ± 4.7 mg, the “Dry granulation Tissue Inhibition” value is recorded as 38.2% and the Thymus wt. is 544 ± 31 mg. Moreover, in series [1] (30 μg/pellet), the Body wt. gain amounted to 20.3 ± 0.9 g, the “Dry granulation Tissue” value was found to be 39.9 ± 3.6 mg, the “Dry granulation Tissue Inhibition” value is 40.6% and the Thymus wt. was 463 ± 24 mg.
On to `CC(C)OC(=O)O[C@]1(C(=O)OCCl)[C@H](C)C[C@H]2[C@@H]3CCC4=CC(=O)C=C[C@]4(C)[C@@]3(F)[C@@H](O)C[C@@]21C` [chloromethyl 9α-fluoro-11β-hydroxy-17α-isopropoxycarbonyloxy-16α-methylandrosta-1,4-dien-3-one-17β-carboxylate], for which, in the series on thymus weight in rats (Table VIII, 10 mg/kg/day s.c.), the Body weight gain is listed as 2.7 ± 1.9 g, the Thymus wt. is on record as 234 ± 31 mg and the “Thymus wt. Inhibition” value was found to be 57.5%.
As to `CCCCCOC(=O)O[C@]1(C(=O)OCCl)[C@H](C)C[C@H]2[C@@H]3CCC4=CC(=O)C=C[C@]4(C)[C@@]3(F)[C@@H](O)C[C@@]21C` [chloromethyl 9β-fluoro-11β-hydroxy-16α-methyl-17α-pentyloxycarbonyloxyandrosta-1,4-dien-3-one-17β-carboxylate], the Body weight gain in the series with thymus weight in rats (Table IX, 1 mg/kg/day s.c.) was determined as 18.0 ± 1.5 g; with thymus weight in rats (Table IX, 3 mg/kg/day s.c.), 15.6 ± 1.3 g; with thymus weight in rats (Table IX, 10 mg/kg/day s.c.) it was 17.4 ± 1.5 g; with thymus weight in rats (Table IX, 30 mg/kg/day s.c.) it was 13.5 ± 1.0 g. Besides, the Thymus wt. is 387 ± 23 mg with thymus weight in rats (Table IX, 1 mg/kg/day s.c.); 347 ± 15 mg in the series with thymus weight in rats (Table IX, 3 mg/kg/day s.c.); 357 ± 22 mg with thymus weight in rats (Table IX, 10 mg/kg/day s.c.); 335 ± 17 mg with thymus weight in rats (Table IX, 30 mg/kg/day s.c.). The “Thymus wt. Decrease” value with thymus weight in rats (Table IX, 1 mg/kg/day s.c.) is on record as 9.2%; in the series on thymus weight in rats (Table IX, 3 mg/kg/day s.c.), 18.5%; in the series on thymus weight in rats (Table IX, 10 mg/kg/day s.c.), 16.2%; with thymus weight in rats (Table IX, 30 mg/kg/day s.c.), 21.4%.
In the case of `CC(C)OC(=O)O[C@]1(C(=O)OCCl)[C@@H](C)C[C@H]2[C@@H]3CCC4=CC(=O)C=C[C@]4(C)[C@@]3(F)C(=O)C[C@@]21C` [chloromethyl 9α-fluoro-17α-isopropoxycarbonyloxy-16β-methylandrosta-1,4-dien-3,11-dione-17β-carboxylate], in series [1] (1 μg/pellet), the Body wt. gain amounted to 28.9 ± 1.1 g, the “Dry granulation Tissue” value came out at 59.1 ± 5.8 mg, the “Dry granulation Tissue Inhibition” value amounted to 12.1% and the Thymus wt. is on record as 441 ± 24 mg. Besides, in series [1] (3 μg/pellet), the Body wt. gain turned out to be 25.8 ± 0.9 g, the “Dry granulation Tissue” value worked out at 49.4 ± 3.7 mg, the “Dry granulation Tissue Inhibition” value is 26.5% and the Thymus wt. was found to be 519 ± 31 mg. Further, in series [1] (10 μg/pellet), the Body wt. gain stood at 28.4 ± 0.8 g, the “Dry granulation Tissue” value was 51.1 ± 5.8 mg, the “Dry granulation Tissue Inhibition” value was found to be 24.0% and the Thymus wt. is 547 ± 35 mg. In series [1] (30 μg/pellet), the Body wt. gain is 27.4 ± 0.9 g, the “Dry granulation Tissue” value came out at 40.6 ± 3.6 mg, the “Dry granulation Tissue Inhibition” value is 39.6% and the Thymus wt. was 536 ± 24 mg.
